Reference: US7071197B2, “N,N-disubstituted diazocycloalkanes” (Recordati S.A., priority 2002, dated 2006)
Where two headings read alike, the source gives them in different places.

Columns and labels:
[1] = target: T1, human cloned 5-HT1A receptors (Homo sapiens, UniProt P08908); experiment: [35S]GTPγS binding, membranes of HeLa cells transfected with human cloned 5-HT1A receptors; assay type: biochemical; details: 5-HT maximal stimulation taken as 100%
T1 construct: expressed in transfected cells
T1 sequence (P08908 1-422): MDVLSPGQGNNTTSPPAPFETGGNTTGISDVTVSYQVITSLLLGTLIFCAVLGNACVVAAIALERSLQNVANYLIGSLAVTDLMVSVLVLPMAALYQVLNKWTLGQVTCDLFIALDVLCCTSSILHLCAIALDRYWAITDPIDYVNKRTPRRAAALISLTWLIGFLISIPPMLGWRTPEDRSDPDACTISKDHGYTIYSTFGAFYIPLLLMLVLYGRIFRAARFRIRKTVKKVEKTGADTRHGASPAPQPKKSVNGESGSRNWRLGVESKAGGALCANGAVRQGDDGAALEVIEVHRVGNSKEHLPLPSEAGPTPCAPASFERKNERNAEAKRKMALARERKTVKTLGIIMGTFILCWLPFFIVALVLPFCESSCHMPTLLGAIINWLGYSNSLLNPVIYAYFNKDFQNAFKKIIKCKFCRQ
Protocol: (§1) A genomic clone coding for the human 5HT1A-serotonergic receptor was stably transfected in a human cell line (HeLa). HeLa cells were grown as monolayers in Dulbecco's modified Eagle medium (DMEM), containing 10% fetal bovine serum, gentamycin (0.1 mg/ml) and 5% carbon dioxide, at 37° C. The cells were detached from the growth flask at 95% confluence by a cell scraper and were lysed in cold 5 mM Tris and 5 mM EDTA buffer (pH 7.4). The homogenates were centrifuged at 40000×g×20 minutes and the pellets were resuspended in a small volume of cold 5 mM Tris and 5 mM EDTA buffer (pH 7.4) and immediately frozen and stored at −70° C. until use.
[^35S]GTPγS binding: on the experimental day, cell membranes from HeLa cells transfected with human cloned 5-HT1A receptors were resuspended in buffer pH 7.4 containing 20 mM HEPES, 3 mM MgCl2 and 120 mM NaCl (Stanton, J. A.; Beer, M. S. Eur. J. Pharmacol. 320, 267–275, 1997). The membranes were incubated with 10 μM GDP and decreasing concentrations of test drugs (from 100 μM to 0.1 nM) or decreasing concentrations of 5-HT (from 100 μM to 0.1 nM, reference curve) for 20 min at 30° C. in a final volume of about 0.25 ml. [^35S]GTPγS ([…] in 10 μl) was added to samples and incubated for a further 30 min at 30° C. Non-specific binding was determined in the presence of 10 μM GTPγS. The incubation was stopped by addition of ice-cold HEPES buffer and rapid filtration on Unifilter GF/C filters, using a Filtermate cell harvester (Packard). The filters were washed four times with total 1.2 ml of same buffer. Radioactivity was counted by liquid scintillation spectrometry with efficiency >90% (TopCount Packard). Stimulation of [^35S]GTPγS binding induced by the compounds tested was espressed as % increase in binding above basal value, being the maximal stimulation observed with 5-HT taken as 100%. The concentration-response curve of the agonistic activity was analyzed by non linear fitting program (De Lean et al., Am. J. Physiol. 235, E97-E102, 1978).
A stimulation of [^35S]GTPγS binding represented the functional correlate of the binding of an agonist compound at the 5-HT1A receptors. Stimulation induced by the endogenous ligand 5-HT was considered the maximal stimulation attainable.

[2] = target: T2, human 5HT1A-serotonergic receptor (Homo sapiens, UniProt P08908); experiment: [3H]8-OH-DPAT radioligand binding to human recombinant 5-HT1A receptors; details: for Ki: [3H]8-OH-DPAT, HeLa cell membranes, read-out: Affinity: Ki
T2 construct: expressed in transfected cells
T2 sequence (P08908 1-422): T1 sequence (P08908 1-422)
Protocol: as §1
[^3H]8-OH-DPAT binding: on the day of experiment, the cell membranes were resuspended in incubation buffer: 50 mM Tris HCl (pH 7.4), 2.5 mM MgCl2, […] (Fargin et al., Nature 335, 358–360, 1988). The membranes were incubated in a final volume of 1 ml for 30 minutes at 30° C. with 1 nM [^3H]8-OH-DPAT, in the absence or presence of the test compounds. Non-specific binding was determined in the presence of 10 μM 5-HT. Incubation was stopped by addition of cold Tris-HCl buffer and rapid filtration through a 0.2%-polyethyleneimine-pretreated Whatman-GF/B or Schleicher-&-Schuell-GF52 filter.
The affinity of the tested compounds was evaluated as inhibition of specific binding of the radioligand to 5-HT1A receptors (IC50) by using the non-linear curve-fitting program (De Lean et al., Am. J. Physiol. 235, E97-E102, 1978). The IC50 value was converted to an affinity constant (Ki) by the equation of Cheng et al., Biochem. Pharmacol. 22, 3099–3108 (1973).

[3] = test system: rhythmic bladder-voiding contractions in anaesthetised rats; experiment: Rhythmic bladder-voiding contractions induced by bladder filling in anaesthetised rats; assay type: in vivo, rat; details: for ED50: Rattus norvegicus; for ED50 / ED10 min (extrapolated dose inducing 10 minutes of disappearance of the contractions): intravenous administration, anaesthetised rats
Protocol: Female Sprague-Dawley rats weighing 225–275 g (Crl: CD® (SD) IGS BR, Charles River Italia) were used. The animals were housed with free access to food and water and maintained on a forced 12-hour alternating light-dark cycle at 22–24° C. for at least one week, except during the experiment. The activity on rhythmic bladder voiding contractions was evaluated according to the method of Dray (Dray J., Pharmacol. Methods, 13:157, 1985), with some modifications as in Guarneri (Guarneri, Pharmacol. Res. 27:173, 1993). Briefly, the rats were anaesthetised by subcutaneous injection of 1.25 g/kg (5 ml/kg) urethane, after which the urinary bladder was catheterised via the urethra using PE 50 polyethylene tubing filled with physiological saline. The catheter was tied in place with a ligature around the external urethral orifice and was connected to conventional pressure transducers (Statham P23 ID/P23 XL). […] The bladder was then filled via the recording catheter by incremental volumes of warm (37° C.) saline until reflex bladder-voiding contractions occurred (usually 0.81.5 ml). For intravenous injection of bioactive compounds, PE 50 polyethylene tubing filled with physiological saline was inserted into the jugular vein.
From the cystometrogram, the number of contractions recorded 15 minutes before (basal values) and after treatment, as well as the mean amplitude of these contractions (mean height of the peaks in mmHg), was evaluated.
Since most compounds produced an effect that was relatively rapid in onset and led to a complete cessation of bladder contractions, bioactivity was conveniently estimated by measuring the duration of bladder quiescence (i.e., the length of the time during which no contractions occurred). The number of tested animals showing a reduction in the number of contractions higher than 30% of that observed in the basal period was recorded too.
The extrapolated doses which induced a reduction in the number of contractions greater than 30% in 50% of the treated rats (ED50) were evaluated by the method of Bliss (Bliss C. I., Quart J. Pharm. Pharmacol. 11, 192–216, 1938).

| SMILES | Functional effect ([35S]GTPγS binding) [1] | Ki [2] [nM] | other results |
| --- | --- | --- | --- |
| O[C@@H](C1CCCCC1)[C@H](CCN1CCN(c2ccccc2OCC(F)(F)F)CC1)c1ccccc1F (racemic) [Ex. 3, 1-[(RS,SR)-4-cyclohexyl-4-hydroxy-3-(2-fluorophenyl)-butyl]-4-[2-(2,2,2-trifluoroethoxy)-phenyl]-piperazine] | Neutral antagonist | 0.29 | – |
| OC(C1CCCCC1)C(CCN1CCN(c2ccccc2OCC(F)(F)F)CC1)c1ccccc1F (stereo not drawn) [Ex. 4, 1-[(RR,SS)-4-cyclohexyl-4-hydroxy-3-(2-fluorophenyl)-butyl]-4-[2-(2,2,2-trifluoroethoxy)-phenyl]-piperazine] | Neutral antagonist | 0.68 | – |
| CCN(CC)CC#CCOC(=O)C(O)(c1ccccc1)C1CCCCC1 (stereo not shown) [Oxybutynin] | – | – | ED50 ([3]; n.a. = not active, no significant reduction of the height of the peaks, read-out: ED50 (amplitude) (extrapolated dose inducing a 30% reduction of amplitude of the contractions in 50% of treated rats)): 0.24 mg/kg; ED50 ([3]; read-out: ED50 (frequency) (extrapolated dose inducing a reduction of the number of contractions > 30% in 50% of treated rats)): > 10 mg/kg; blockade of bladder contractions ([3]; at 240 μg/kg): did not cause a blockade of bladder contractions; ED10 min (extrapolated dose inducing 10 minutes of disappearance of the contractions) [3]: 7.77 mg/kg |
| COc1ccccc1N1CCN(CCC(c2ccccc2F)C(O)C2CCCCC2)CC1 (stereo not shown) [Ex. 2, 1-[(RR-SS)-4-cyclohexyl-4-hydroxy-3-(2-fluorophenyl)-butyl]-4-(2-methoxyphenyl)-piperazine] | Neutral antagonist | 0.29 | potency at the 5-HT1A receptor compared with Ex. 5 ([2]; statistical signficance p<0.01): more potent than Ex. 5 |
| COc1ccccc1N1CCN(CC[C@@H](c2ccccc2F)[C@H](O)C2CCCCC2)CC1 [Ex. 1X, 1-[(3S,4R)-4-cyclohexyl-4-hydroxy-3-(2-fluorophenyl)-butyl]-4-(2-methoxyphenyl)-piperazine] | Partial agonist | 0.5 | – |
| Cc1c(-c2ccccc2)oc2c(C(=O)OCCN3CCCCC3)cccc2c1=O [Flavoxate] | – | – | ED10 min (extrapolated dose inducing 10 minutes of disappearance of the contractions) [3]: >10 mg/kg |
| COc1ccccc1N1CCN(CC[C@@H](c2ccccc2F)[C@@H](O)C2CCCCC2)CC1 [Ex. 2Y, 1-[(3S,4S)-4-cyclohexyl-4-hydroxy-3-(2-fluorophenyl)-butyl]-4-(2-methoxyphenyl)-piperazine] | Partial agonist | 0.98 | – |
